# Target: T1, PPARγ ligand-binding domain (PPARγ LBD) (Homo sapiens, UniProt P37231)
# T1 construct: gene PPARG
# T1 sequence (P37231 238-505 limits assumed): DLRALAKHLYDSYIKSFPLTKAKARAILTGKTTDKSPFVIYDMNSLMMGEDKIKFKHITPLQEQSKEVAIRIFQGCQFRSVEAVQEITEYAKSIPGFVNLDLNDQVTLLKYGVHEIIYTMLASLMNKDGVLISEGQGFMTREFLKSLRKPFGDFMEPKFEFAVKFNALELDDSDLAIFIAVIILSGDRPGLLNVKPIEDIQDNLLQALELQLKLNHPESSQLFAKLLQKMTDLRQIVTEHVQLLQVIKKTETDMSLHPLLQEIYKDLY
# Test: fluorescence polarization competition (PolarScreen PPARγ Competitor Assay Green)
# Details: displacement of fluorescent PPARγ ligand; ex 485 nm, em 535 nm; unreliable
row,IC50 [µM],Structure (SMILES)
1,> 8000,"Cc1ccc(C2(CC(=O)O)CCOC(C)(C)C2)cc1 (stereo not drawn) [C2, ZINC00201868]"
2,> 8000,"COc1ccc(C(O)=C2C(=O)C(=O)N(Cc3cccnc3)C2c2ccc(O)cc2)c(C)c1 (stereo not drawn) [C3, ZINC00914339]"
3,> 8000,"Cc1oc2c(C)c3oc(=O)c(CC(=O)N4CCC(C(=O)O)CC4)c(C)c3cc2c1C [C6, ZINC02156886]"

# Same assay, conditions: read-out: Binding affinityIC50
row,Structure (SMILES),IC50 [µM]
1,"C=C(C)COc1ccc2oc(-c3ccccc3)c(C(=O)O)c2c1 [C1, ZINC00083676]",12.4
2,"CC(C)C(NC(=O)C(Cc1ccccc1)n1c(=O)[nH]c2ccccc2c1=O)C(=O)O (stereo not drawn) [C5, ZINC02128851]",1000
3,"Cc1ccc(C(c2ccc(C)o2)c2ccccc2C(=O)O)o1 [C7, ZINC03846929]",252

# Other lines, results leading:
row,IC50 [µM],Structure (SMILES)
1,460,"Cc1cc(C)c2c(O)nn(C3CCOC(C)(C)C3)c2n1 (stereo not drawn) [C8, ZINC04040746]"
2,585,"CC1(C)SC2c3ccccc3C(=O)N2C1C(=O)NC(Cc1ccccc1)C(=O)O (stereo not drawn) [C9, ZINC04085288]"
3,18.5,"CC(C)C[C@H](NC(=O)OCC1c2ccccc2-c2ccccc21)C(=O)O [FMOC, reference compound]"

# Source: PMC3511273, “Identification of PPARgamma Partial Agonists of Natural Origin (I): Development of a Virtual Screening Procedure and In Vitro Validation” (PLoS ONE, 2012)
